Results on 14 substances are retold here after patent US20040132188A1, “Use of non-complexing peptides for the preparation of a composition for transfection of a polynucleotide into a cell and compositions useful in gene therapy” (priority 2001, published 2004).

Data set [1] in a line: Liposome leakage assay, POPC/cholesterol 3:2 liposomes. It is filed as biochemical. The note with it: for liposome leakage activity / calcein release: POPC/chol liposomes, pH 7. The source says: FIG. 9: Liposome leakage assay. […] Emitted fluorescence was plotted against peptide concentration. […] C) Comparison of ppTG1, ppTG20 and ppTG21 at pH 7.
Leakage activity was plotted against peptide concentration.

Data set [2] concerns HeLa cells. In words: Transfection in vitro, luciferase plasmid pTG11236. It is filed as cell-based. Conditions: for transfection / gene transfer efficiency in vitro: 50 ng pTG11236, increasing amounts of peptide, day 1. On the procedure: Cells were plated on 24 well plates at a density of 4×10^4 (293-EBNA ) or 7×10^4 (HeLa, Renca) cells/well in DMEM supplemented with 10% FCS. The next day, the medium was replaced by 200 μl serum-free DMEM and plasmid (PTG11056 or pTG11236)/peptide complexes or plasmid/peptide/lipid complexes were prepared in 30 μl 0.9% NaCl or 5% glucose. After 20 min at room temperature these complexes were added to the cells which were then incubated for 2-3 h at 37° C. and 5% CO2 before 1 ml serum-containing DMEM was added. Approximately 20 hours later, cells were lysed by addition of 100 μl 1× Promega lysis buffer, 20 μl of the lysates were analysed for luciferase activity. Proteins were quantified with the bicinchonic acid (BCA) colorimetric method (Smith, Anal. Biochem. 150 (1985), 76-85). […]
HeLa cells were seeded at a density of 6×10^4 cells on 24 well plates. The next day, cells were incubated with 200 μl serum-free medium, 30 μl of plasmid (50 ng)/peptide/lipid mixtures were added and incubated for 3 h at 37° C. in 5% CO2. 1 ml of DMEM+10% FCS was then added. The next day, the medium was removed and cells were washed with 500 μl of PBS and subsequently treated with 100 μl of Promega lysis buffer. Plates were stored at −80° C. until luciferase activity was measured of 20 μl of the cell lysate. The protein assay was performed using the Pierce BCA kit.
JTS1 was dissolved to 1 mg/ml in 1 mM NaOH and mixed with DNA diluted in 5% glucose. ppTG1 was then added to this solution. The pcTG90/DOPE ppTG1 mixtures were prepared as described in Example 6. Transfection assays were performed on HeLa cells with 50 ng of plasmid as described in Example 6.
The series of ppTG1 derivatives listed in Material and Methods were tested for their gene transfer efficiencies in Hela cells. 6×10^4 cells were transfected with 50 ng pTG11236 complexed with increasing amounts of peptide. Luciferase activity was analyzed day 1 after transfection. The results are shown in FIG. 10B (ppTG20, ppTG21), FIG. 10C (ppTG25, ppTG26, ppTG27), FIG. 10D (ppTG28 to ppTG33), FIG. 10E (PEG-ppTG1 and PEG-ppTG20), FIG. 10F (ppTG22 to ppTG24) and FIG. 10G (ppTG20-D).

Data set [3] concerns B6SJL mice, lungs. In words: In vivo gene transfer after intravenous injection, luciferase activity in the lungs. The note with it: pTG11236/peptide complexes intravenously injected; for gene transfer efficiency in the lung: luciferase day 1. The method, then:
Mice were sacrificed at day 1.
Lungs were tested for luciferase activity.

The test system of data set [4] is RENCA tumors. In words: In vivo gene transfer after intratumoral injection, luciferase activity in tumors. Conditions: 10 μg pTG11236, peptide at pH 8, intratumoral, day 1. Details: species or system B6D2 mice. On the procedure:
4×10^5 RENCA cells (murine kidney tumor cells, ATCC) were injected subcutaneously into B6D2 mice to provoke tumor growth. When tumors reached a size of approximatively 30 mm^3, 30 μl of a 5% glucose solution, containing the luciferase expression plasmid DNA pTG11236 in presence or absence of peptide of the present invention were injected into the tumors. Mice were sacrificed at day 1 after injection, tumors were recovered and homogeinized. Luciferase activity was analyzed and expressed as RLU/g tumor.
The peptide ppTG21 was tested for its capacity to enhance plasmid transfer after intratumoral injection in RENCA tumor-bearing mice. Ten μg of the luciferase expression plasmid pTG11236 were mixed with increasing amounts (i.e. 0.1, 0.6, 3 or 15 micrograms) of ppTG21 at pH 8 (10 mM Tris pH 8). […] In paralell, experiments have been conducted in identical conditions by administering the same plasmid DNA in the presence of increasing amounts (i.e. 0.1%, 0.2%, 0.4% and 0.6 %) of HPC (Hexadecyl-phospho-choline). Plasmid DNA alone, or plasmid DNA in the presence of HPC or ppTG21 were intratumorally injected in similar conditions. Next day, luciferase activities in the tumors was determined (RLU/g tumour).

Data set [5] relates to plasmid pTG11236. In words: Gel retardation assay (DNA binding activity). On the procedure: 3 μg of the plasmid pTG11236 were incubated with increasing amounts of the respective peptide in a final volume of 30 μl with 0.9% NaCl. After 20 min of incubation at room temperature, 6 μl 5× loading buffer (glycerol and bromphenol blue in TAE buffer) were added and 10 μl of these solutions were analyzed on a 1% agarose gel in the presence of ethidium bromide.
The ability of ppTG1 peptide to complex DNA was analyzed by gel retardation assays. […] After 20 minutes incubation at room temperature, loading buffer was added and 10 μl of the resulting solution were analyzed on a 1% agarose gel.
ppTG1 derivatives as they are indicated in Materials and Methods, were tested for their capacity to bind plasmid DNA by gel retardation assays.

Data set [6] can be described thus: Liposome leakage assay, POPC/cholesterol 3:2 liposomes. It is filed as biochemical. The note with it: POPC/chol liposomes, pH 5.
The conditions of data set [7]: pH 5 versus pH 7; cited from earlier work.
Where [8] appears, read: 50 ng pTG11236 complexed with 0.9 μg ppTG1 and 0.1 μg JTS1, final charge ratio 5.

Entries after “also recorded” stand apart in the source; their conditions may differ. Square brackets hold non-standard residues; d marks the D form. Ends that are not written are not given here. Bounds are passed on as bounds.

As to “Gly-Leu-Phe-Arg-Ala-Leu-Leu-Arg-Leu-Leu-Arg-Ser-Leu-Trp-Arg-Leu-Leu-Leu-Arg-Ala (G[dL][dF][dR][dA][dL][dL][dR][dL][dL][dR][dS][dL][dW][dR][dL][dL][dL][dR][dA]) [ppTG20-D]”, in data set [1], the “liposome leakage activity / calcein release” value is “retained”. The “transfection / gene transfer efficiency in vitro” value in data set [2] (HeLa cells) is “retained; also recorded: as efficient as ppTG1”. Further, the “gene transfer efficiency in the lung” value in data set [3] is recorded as “even higher than with ppTG1; also recorded: even more efficient than ppTG20”.
Take GLFRRLLRLLRRLWRLLLRA: in data set [1], the “liposome leakage activity / calcein release” value was “comparable to ppTG1 and ppTG20; also recorded: slightly reduced”. The “transfection / gene transfer efficiency in vitro” value in data set [2] (HeLa cells) is “comparable to ppTG1 and ppTG20; also recorded: did not change”.
Regarding GIFRAIIRIIRSIWRIIIRA, the “liposome leakage activity / calcein release” value in data set [1] is “slightly reduced”. Moreover, the “transfection / gene transfer efficiency in vitro” value in data set [2] (HeLa cells) was “diminished; also recorded: reduced”.
On to GLFKKLLKLLKKLWKLLLKA, for which the “liposome leakage activity / calcein release” value in data set [1] was “comparable to ppTG1 and ppTG20; also recorded: slightly reduced”. In data set [2] (HeLa cells), the “transfection / gene transfer efficiency in vitro” value is “comparable to ppTG1 and ppTG20; also recorded: did not change”.
Turning to GIFKAIIKIIKSIWKIIIKA, the “transfection / gene transfer efficiency in vitro” value in data set [2] (HeLa cells) is “diminished; also recorded: reduced”.
Turning to GLFHALLHLLHSLWHLLLHA, in data set [1], the “liposome leakage activity / calcein release” value was “comparable to ppTG1”. Further, the “transfection / gene transfer efficiency in vitro” value in data set [2] (HeLa cells) is on record as “strongly reduced”. The “gene expression (luciferase) in tumors after co-injection with plasmid” value in data set [4] is listed as “increase of apparent gene expression; also recorded: dramatic improvement of the nucleic acid transfer efficiency”. For the same substance, the “binding to plasmid DNA” value in data set [5] (pH 5) is “binds plasmid DNA; also recorded: can bind DNA”; in data set [5] (pH 8) it was “not capable to bind to plasmid DNA”.
Consider “GLFEALLELLESLWELLLEACCYKAKKKKKKKKWKKKKQS (cysteine pairing not given here) [reference compound]”, for which the “liposome leakage activity / calcein release” value is recorded as “low level release” in data set [6] and “impeded in calcein release” in data set [1]. Further, in data set [2] (0.05 μg plasmid DNA), the transfection result was “remains low”. Also, the “retardation of pTG11236” value in data set [5] (3 μg (0.6 nmol) peptide, 3 μg pTG11236) is recorded as > 95%. Further, the “gene transfer efficiency in the lung” value in data set [3] was “low”.
As for GLFRALLRLLRSLWRLLLRA [ppTG20], the “toxicity” value in data set [3] is on record as “less toxic than ppTG1”.
In the case of GVFRAVVRVVRSVWRVVVRA, the “liposome leakage activity / calcein release” value in data set [1] was “diminished; also recorded: significantly reduced”. Also, the “transfection / gene transfer efficiency in vitro” value in data set [2] (HeLa cells) is “diminished”.
Take “CGLFKALLKLLKSLWKLLLKAC (cysteine pairing not given here)”: in data set [1], the “liposome leakage activity / calcein release” value was “slightly reduced”.
For the substance GVFKAVVKVVKSVWKVVVKA, in data set [1], the “liposome leakage activity / calcein release” value was “diminished; also recorded: significantly reduced”. In addition, the “transfection / gene transfer efficiency in vitro” value in data set [2] (HeLa cells) was “diminished”. Further, the “gene transfer efficiency in the lung” value in data set [3] is recorded as “drastically reduced; also recorded: did not lead to detectable reporter gene expression”.
As for “GLFEALLELLESLWELLLEA [reference compound]”, the “liposome leakage activity / calcein release” value in data set [6] was “high lysis activity”. Also, the “liposome leakage activity / calcein release” value in data set [1] is reported as “reduced”. In data set [2] (setting [8]), the “increase of luciferase activity versus best formulation of ppTG1/pcTG90/DOPE” value is “about 10 factor” and the “increase of luciferase activity versus pcTG90/DOPE alone” value was “about 1000 factor”. Moreover, the “lysing of calcein containing phosphatidylcholine liposomes” value in data set [7] is recorded as “more efficiently than at a pH 7”.
On to “WEAKLAKALAKALAKHLAKALAKALKACEA [reference compound]”, for which the “liposome leakage activity” value in data set [1] (POPC/Chol (3:2) liposomes, pH not separated (compared at pH 5 and pH 7)) was “no activity; also recorded: could not liberate calcein”. For the same substance, the “gene transfer at optimal charge ratio lower than for ppTG1” value in data set [2] (50 ng pTG11236) worked out at 200 fold; in data set [2] (500 ng pTG11236), 4 fold. Besides, the “best (optimal) charge ratio for gene transfer” value in data set [2] (HeLa cells, 50 ng and 500 ng pTG11236) came to 7. Moreover, in data set [3], the “gene transfer efficiency in the lung” value was “undetectable; also recorded: inefficient”.
With CGLFKALLKLLKSLWKLLLKA, the “liposome leakage activity / calcein release” value in data set [1] is reported as “slightly reduced”.
